Reference: US20060247286A1, “Oxazolidinone antibiotics and derivatives thereof” (priority 2003, published 2006)
Converted amounts (≈) assume the structure as drawn.

Assays:
Format in all cases: cell-based
[1] = tested on: Staphylococcus aureus MR (methicillin resistant); assay: MIC, agar dilution method, Mueller-Hinton agar; conditions: 1×10^4 cfu/spot, 35° C., 24 hours
Method: (§1) The following in vitro results were obtained based on an agar dilution method except for C. pneumoniae. The activity is presented as the minimum inhibitory concentration (MIC).
(§2) S. aureus and M. catarrhalis were tested on Mueller-Hinton agar, using an approximate inoculum of 1×10^4 cfu/spot an incubation temperature of 35° C. for 24 hours. The MIC was defined as the lowest concentration at which no visible bacterial growth was observed.

[2] = tested on: Staphylococcus aureus CR (chloramphenicol resistant); assay: MIC, agar dilution method, Mueller-Hinton agar; conditions: 1×10^4 cfu/spot, 35° C., 24 hours
Method: as §1, §2

[3] = tested on: Moraxella catarrhalis ATCC25238; assay: MIC, agar dilution method, Mueller-Hinton agar; conditions: 1×10^4 cfu/spot, 35° C., 24 hours
Method: as §1, §2

[4] = tested on: Staphylococcus aureus Smith; assay: MIC, agar dilution method, Mueller-Hinton agar; conditions: 1×10^4 cfu/spot, 35° C., 24 hours
Method: as §1, §2

[5] = tested on: Streptococcus pneumoniae IID553; assay: MIC, agar dilution method, Mueller-Hinton agar with 5% defibrinated horse blood; conditions: 35° C., 5% CO2, 24 hours
Method: as §1
as §2, with “Streptococci” for “S. aureus”, “enterococci” for “M. catarrhalis”, “agar supplemented with 5% defibrinated horse blood,” for “agar,”, “C. in an atmosphere of 5% CO2” for “C.”

[6] = tested on: Streptococcus pneumoniae PRQR (penicillin resistant, quinolone resistant); assay: as above; conditions: 35° C., 5% CO2, 24 hours
Method: as §1
as §2, with “Streptococci” for “S. aureus”, “enterococci” for “M. catarrhalis”, “agar supplemented with 5% defibrinated horse blood,” for “agar,”, “C. in an atmosphere of 5% CO2” for “C.”

[7] = tested on: Enterococcus faecium VRQR (vancomycin resistant, quinolone resistant); assay: as above; conditions: 35° C., 5% CO2, 24 hours
Method: as §1
as §2, with “Streptococci” for “S. aureus”, “enterococci” for “M. catarrhalis”, “agar supplemented with 5% defibrinated horse blood,” for “agar,”, “C. in an atmosphere of 5% CO2” for “C.”

[8] = tested on: Streptococcus pyogenes IID692; assay: as above; conditions: 35° C., 5% CO2, 24 hours
Method: as §1
as §2, with “Streptococci” for “S. aureus”, “enterococci” for “M. catarrhalis”, “agar supplemented with 5% defibrinated horse blood,” for “agar,”, “C. in an atmosphere of 5% CO2” for “C.”

MIC [1] [µg/mL]	MIC [2] [µg/mL]	MIC [3] [µg/mL]	MIC [4] [µg/mL]	MIC [5] [µg/mL]	MIC [6] [µg/mL]	MIC [7] [µg/mL]	MIC [8] [µg/mL]	SMILES
0.5 (≈ 1.37 µM)	1 (≈ 2.74 µM)	1 (≈ 2.74 µM)	0.25 (≈ 0.684 µM)	0.25 (≈ 0.684 µM)	0.25 (≈ 0.684 µM)	0.25 (≈ 0.684 µM)	0.125 (≈ 0.342 µM)	CC(=O)NC[C@H]1CN(c2ccc([C@@]3(C#N)[C@@H]4CN(C#N)C[C@@H]43)cc2)C(=O)O1 [Example 11, N-[5(S)-3-[4-[(1α,5α,6β)-(3,6-Dicyano-3-azabicyclo[3.1.0]hexan-6-yl)]phenyl]-2-oxooxazolidin-5-ylmethyl]acetamide]
1 (≈ 2.51 µM)	2 (≈ 5.02 µM)	2 (≈ 5.02 µM)	1 (≈ 2.51 µM)	0.5 (≈ 1.25 µM)	0.5 (≈ 1.25 µM)	0.5 (≈ 1.25 µM)	0.5 (≈ 1.25 µM)	CC(=O)NC[C@H]1CN(c2ccc([C@@]3(C#N)[C@@H]4CN(C(=O)CO)C[C@@H]43)cc2)C(=O)O1 [Example 8, N-[5(S)-3-[4-[(1α,5α,6β)-(6-Cyano-3-hydroxyacetyl-3-azabicyclo[3.1.0]hexan-6-yl)]phenyl]-2-oxooxazolidin-5-ylmethyl]acetamide]

More lines, now with the values behind:

SMILES	MIC [1] [µg/mL]	MIC [2] [µg/mL]	MIC [3] [µg/mL]	MIC [4] [µg/mL]	MIC [5] [µg/mL]	MIC [6] [µg/mL]	MIC [7] [µg/mL]	MIC [8] [µg/mL]
CC(=O)NC[C@H]1CN(c2ccc([C@@]3(C#N)[C@@H]4CCC[C@@H]43)cc2)C(=O)O1 [Example 1, N-[5(S)-3-[4-[(1α,5α,6β)-(6-Cyanobicyclo[3.1.0]hexan-6-yl)]phenyl]-2-oxooxazolidin-5-ylmethyl]acetamide]	0.25 (≈ 0.737 µM)	2 (≈ 5.89 µM)	0.5 (≈ 1.47 µM)	0.25 (≈ 0.737 µM)	0.5 (≈ 1.47 µM)	0.25 (≈ 0.737 µM)	0.25 (≈ 0.737 µM)	0.5 (≈ 1.47 µM)
CC(=O)NC[C@H]1CN(c2ccc([C@@]3(C#N)[C@@H]4CN(S(C)(=O)=O)C[C@@H]43)cc2)C(=O)O1 [Example 9, N-[5(S)-3-[4-[(1α,5α,6β)-(6-Cyano-3-methanesulfonyl-3-azabicyclo[3.1.0]hexan-6-yl)]phenyl]-2-oxooxazolidin-5-ylmethyl]acetamide]	0.5 (≈ 1.19 µM)	1 (≈ 2.39 µM)	2 (≈ 4.78 µM)	0.5 (≈ 1.19 µM)	0.5 (≈ 1.19 µM)	0.5 (≈ 1.19 µM)	0.5 (≈ 1.19 µM)	0.5 (≈ 1.19 µM)
CC(=O)NC[C@H]1CN(c2ccc(N3CCOCC3)c(F)c2)C(=O)O1 [Linezolid, reference compound]	1 (≈ 2.96 µM)	16 (≈ 47.4 µM)	4 (≈ 11.9 µM)	1 (≈ 2.96 µM)	2 (≈ 5.93 µM)	1 (≈ 2.96 µM)	2 (≈ 5.93 µM)	1 (≈ 2.96 µM)
